16 compounds from PubChem BioAssay (NCI) can be followed below.

Some test systems named below: CAKI-1 renal; HL-60(TB) leukemia; K-562 leukemia; KM12 colon; LOX IMVI melanoma; MALME-3M melanoma; NCI-H23 lung; SK-MEL-2 melanoma; SK-MEL-5 melanoma; HCC-2998 colon.
Experiment in all cases: NCI anticancer screen, dose series, 48 h

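Test compounds were applied to cells in 96-well plates for 48 hours at 5 doses. TGI denotes the concentration required for complete inhibition of growth.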

For `C[C@]1(S(=O)(=O)c2ccccc2)C[C@H]2N(Cc3ccccc3)[C@@H]1CCC21OCCO1`, the TGI with CAKI-1 renal is over 100 µM; in the assay on HL-60(TB) leukemia, 32.6 µM; in the assay on K-562 leukemia it was over 100 µM; with KM12 colon, over 100 µM; with LOX IMVI melanoma, over 100 µM; with MALME-3M melanoma, over 100 µM. Moreover, the TGI with NCI-H23 lung, with SK-MEL-2 melanoma and with SK-MEL-5 melanoma was over 100 µM throughout.

As for `CCOC(=O)C1(C(=O)OCC)CCCN1C(=O)[C@H](CNC(=O)OC(C)(C)C)NC(=O)OCc1ccccc1`, the TGI in the assay with CAKI-1 renal, in the assay with HCC-2998 colon, in the assay on K-562 leukemia, with KM12 colon, in the assay on LOX IMVI melanoma and in the assay with NCI-H23 lung was over 100 µM each time. Besides, the TGI in the assay with SK-MEL-2 melanoma and in the assay with SK-MEL-5 melanoma was over 100 µM in each case.

For `COc1cc2c(cc1OC)C13CC[N+]4(C)CC5=CCOC6CC(=O)N2C1C6C5CC34[O-]` (stereo unspecified), the TGI with CAKI-1 renal, in the assay on HL-60(TB) leukemia, in the assay with K-562 leukemia, with KM12 colon, in the assay with LOX IMVI melanoma and with MALME-3M melanoma was over 100 µM each time. In addition, the TGI in the assay on NCI-H23 lung and with SK-MEL-5 melanoma was over 100 µM each time.

Consider `CCCCN(CCCC)C(=C(C(Cl)=C(Cl)Cl)[N+](=O)[O-])N(CCCC)CCCC`, for which the TGI is over 100 µM with CAKI-1 renal; 4.69 µM in the assay on K-562 leukemia; over 100 µM in the assay with KM12 colon; over 100 µM with MALME-3M melanoma; over 100 µM in the assay with NCI-H23 lung; over 100 µM with SK-MEL-2 melanoma. Moreover, the TGI in the assay on SK-MEL-5 melanoma is over 100 µM.

Consider `Nc1nc(Nc2ccccc2)sc1C(=O)c1c[nH]c2ccccc12`, for which the TGI was determined as 46.2 µM in the assay on HL-60(TB) leukemia; 56.7 µM with K-562 leukemia; 24.4 µM with KM12 colon; 64.8 µM with LOX IMVI melanoma; 34.5 µM in the assay with MALME-3M melanoma; 49.2 µM in the assay on NCI-H23 lung. Besides, the TGI turned out to be 29.8 µM with SK-MEL-2 melanoma and 25.1 µM with SK-MEL-5 melanoma.

`COc1cc(CNc2nc3cc(C(F)(F)F)ccc3nc2-c2ccccc2)cc(OC)c1OC`: the TGI was over 100 µM in the assay with CAKI-1 renal; 52.4 µM in the assay with HCC-2998 colon; 70 µM with HL-60(TB) leukemia; over 100 µM in the assay on K-562 leukemia; 53 µM in the assay with KM12 colon; over 100 µM in the assay with LOX IMVI melanoma. The TGI with MALME-3M melanoma is 72 µM; with NCI-H23 lung it was over 100 µM; with SK-MEL-5 melanoma it was 73.3 µM.

Turning to `S=C1CC(c2ccccc2)Sc2ccc(Cl)cc2N1` (stereo unspecified), the TGI in the assay on CAKI-1 renal, with HL-60(TB) leukemia, in the assay with K-562 leukemia, in the assay with KM12 colon, in the assay on LOX IMVI melanoma and in the assay with MALME-3M melanoma was over 100 µM throughout. In addition, the TGI in the assay on NCI-H23 lung and in the assay with SK-MEL-5 melanoma was over 100 µM each time.

As to `COc1ccc(N=NC(=Nc2ccc(F)cc2)c2ccc(N(CCC#N)CCC#N)cc2)cc1`, the TGI was over 100 µM in the assay with CAKI-1 renal; 51.5 µM with HCC-2998 colon; over 100 µM with K-562 leukemia; 44.9 µM in the assay with KM12 colon; 65.6 µM with NCI-H23 lung; over 100 µM with SK-MEL-5 melanoma.

In the case of `CCCOC(=O)NC(C)C(=O)NC(CCC(=O)NC(CCCC(N)C(=O)O)C(=O)NC(C)C(=O)O)C(=O)O` (stereo unspecified), the TGI was 40.7 µM in the assay with CAKI-1 renal; 34.8 µM with HCC-2998 colon; 42.1 µM with HL-60(TB) leukemia; 27.4 µM in the assay on KM12 colon; 30.1 µM with LOX IMVI melanoma; over 100 µM in the assay with NCI-H23 lung. Further, the results for the TGI with SK-MEL-2 melanoma and in the assay on SK-MEL-5 melanoma were over 100 µM and 30.5 µM, respectively.

Consider `CCOC(=O)C(C)c1nc2c(Cl)c3ncccc3cc2[nH]c1=O` (stereo unspecified), for which the TGI in the assay on CAKI-1 renal, in the assay on K-562 leukemia, in the assay on KM12 colon, in the assay on LOX IMVI melanoma, in the assay with MALME-3M melanoma and with NCI-H23 lung was over 100 µM in each case. For the same compound, the TGI in the assay with SK-MEL-2 melanoma and with SK-MEL-5 melanoma was over 100 µM in each case.

For `CC1=CC(=O)CC2(C)CCC(C(C)CC(=O)CC(C)C)CC12` (stereo unspecified), the TGI in the assay on CAKI-1 renal was 30.2 µM; in the assay with HL-60(TB) leukemia, 43.2 µM; in the assay on K-562 leukemia it was over 100 µM; in the assay with KM12 colon, 36.4 µM; with LOX IMVI melanoma, 34.8 µM; in the assay with MALME-3M melanoma, 62.4 µM. Further, the results for the TGI with NCI-H23 lung, in the assay with SK-MEL-2 melanoma and with SK-MEL-5 melanoma were over 100 µM, over 100 µM and 36.4 µM, respectively.

In the case of `c1ccc(-c2cnc(-c3ccc(-c4ncc(-c5ccccc5)o4)cc3)o2)cc1`, the TGI in the assay with HCC-2998 colon, with HL-60(TB) leukemia, with K-562 leukemia, in the assay with KM12 colon, with LOX IMVI melanoma and in the assay on MALME-3M melanoma was over 100 µM each time. Also, the TGI in the assay with NCI-H23 lung and in the assay on SK-MEL-5 melanoma was over 100 µM throughout.

As for `OC1(c2ccc(Cl)cc2)c2ccc(CN3CCCC3)cc2C2=NCCN21` (stereo unspecified), the TGI in the assay with CAKI-1 renal stood at 31.7 µM; in the assay on HL-60(TB) leukemia, 29.1 µM; in the assay with K-562 leukemia it was 45.2 µM; in the assay with KM12 colon it was 27.6 µM; in the assay with LOX IMVI melanoma, 29.1 µM; with MALME-3M melanoma it was 25.2 µM. In addition, the TGI in the assay with NCI-H23 lung came to 31.2 µM; in the assay on SK-MEL-2 melanoma, 34.2 µM; with SK-MEL-5 melanoma it was 22.3 µM.

Regarding `Cc1ccc(-c2c(C#N)c(-c3ccc([N+](=O)[O-])cc3)c(C#N)c(=O)n2NS(=O)(=O)c2ccccc2)cc1`, the TGI was over 100 µM with CAKI-1 renal; over 100 µM in the assay with HCC-2998 colon; over 100 µM with K-562 leukemia; over 100 µM with KM12 colon; 83 µM with LOX IMVI melanoma; over 100 µM in the assay on MALME-3M melanoma. For the same compound, the TGI was over 100 µM with SK-MEL-2 melanoma and 26.9 µM in the assay on SK-MEL-5 melanoma.

On to `CC/C(Cl)=N\OC(=O)Nc1ccc(F)c([N+](=O)[O-])c1`, for which the TGI in the assay on CAKI-1 renal is 7.7 µM; in the assay with HCC-2998 colon, over 100 µM; in the assay with K-562 leukemia it was over 24.5 µM; in the assay on KM12 colon, 34.2 µM; with LOX IMVI melanoma it was over 48.9 µM; with MALME-3M melanoma it was 4.35 µM. Further, the TGI with NCI-H23 lung is 35.6 µM; in the assay with SK-MEL-2 melanoma, 32 µM; in the assay on SK-MEL-5 melanoma, 29.5 µM.

As to `O=C(CCc1cccc(O)c1)NCCCNC(=O)CCc1cccc(O)c1`, the TGI with CAKI-1 renal, with HCC-2998 colon, with K-562 leukemia, with KM12 colon, in the assay with LOX IMVI melanoma and with MALME-3M melanoma was over 100 µM each time. The TGI with NCI-H23 lung, in the assay on SK-MEL-2 melanoma and in the assay on SK-MEL-5 melanoma was over 100 µM each time.
